Broadly, the IC50 is the point on the concentration scale where inhibition reaches its midpoint.

For this experiment, the target named is T1, full length SGK1 (Homo sapiens, UniProt O00141).
T1 construct: 125 μM full length SGK1 (Life Technologies Part #PR7358A); purchased Life Technologies PR7358A
T1 sequence (O00141 1-431): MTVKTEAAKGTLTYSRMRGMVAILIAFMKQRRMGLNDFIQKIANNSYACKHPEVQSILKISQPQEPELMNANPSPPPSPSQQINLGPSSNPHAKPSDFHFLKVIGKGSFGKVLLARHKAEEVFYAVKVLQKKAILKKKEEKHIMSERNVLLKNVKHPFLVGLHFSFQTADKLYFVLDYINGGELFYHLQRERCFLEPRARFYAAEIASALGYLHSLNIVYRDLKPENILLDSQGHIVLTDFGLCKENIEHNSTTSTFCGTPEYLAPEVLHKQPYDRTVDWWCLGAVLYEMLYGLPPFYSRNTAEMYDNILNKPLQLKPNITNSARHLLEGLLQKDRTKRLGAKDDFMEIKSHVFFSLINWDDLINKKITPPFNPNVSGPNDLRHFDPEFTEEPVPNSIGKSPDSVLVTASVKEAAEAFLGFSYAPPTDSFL
Nature of the experiment: SGK1 inhibition Assay A (Caliper LabChip electrophoretic separation of fluorescent peptide substrate and phosphorylated product). Conditions: Assay A; 20 μM ATP, 40 min incubation; read-out: SGK1 IC50. It is filed as biochemical.

Take `CC(=O)N1CC=C(c2cc(N3CCC[C@@H](NC(=O)c4sc5ccccc5c4OC4CCNCC4)C3)c3c(N)ncnn23)C1` [Example 655, (R)—N-(1-(7-(1-acetyl-2,5-dihydro-1H-pyrrol-3-yl)-4-aminopyrrolo[2,1-f][1,2,4]triazin-5-yl)piperidin-3-yl)-3-(piperidin-4-yloxy)benzo[b]thiophene-2-carboxamide]: the IC50 came to 9 nM. For `N#Cc1ccc(-c2cc(N3CCC[C@@H](NC(=O)c4sc5ccccc5c4OC4CCNCC4)C3)c3c(N)ncnn23)cn1` [Example 656, (R)—N-(1-(4-amino-7-(6-cyanopyridin-3-yl)pyrrolo[2,1-f][1,2,4]triazin-5-yl)piperidin-3-yl)-3-(piperidin-4-yloxy)benzo[b]thiophene-2-carboxamide] the value was 3 nM; for `Nc1ncnn2c(-c3cncnc3)cc(N3CCC[C@@H](NC(=O)c4sc5ccccc5c4OC4CCNCC4)C3)c12` [Example 657, (R)—N-(1-(4-amino-7-(pyrimidin-5-yl)pyrrolo[2,1-f][1,2,4]triazin-5-yl)piperidin-3-yl)-3-(piperidin-4-yloxy)benzo[b]thiophene-2-carboxamide], 51 nM. Take `COC(=O)N1CC=C(c2cc(N3CCC[C@@H](NC(=O)c4sc5ccccc5c4OC4CCN(C)CC4)C3)c3c(N)ncnn23)C1` [Example 658, methyl (R)-3-(4-amino-5-(3-(3-((1-methylpiperidin-4-yl)oxy)benzo[b]thiophene-2-carboxamido)piperidin-1-yl)pyrrolo[2,1-f][1,2,4]triazin-7-yl)-2,5-dihydro-1H-pyrrole-1-carboxylate]: the IC50 worked out at 18 nM.

Take `COC(=O)N1CC=C(c2cc(N3CCC[C@@H](NC(=O)c4sc5ccccc5c4OC4CCN(C(C)C)CC4)C3)c3c(N)ncnn23)C1` [Example 659, methyl (R)-3-(4-amino-5-(3-(3-((1-isopropylpiperidin-4-yl)oxy)benzo[b]thiophene-2-carboxamido)piperidin-1-yl)pyrrolo[2,1-f][1,2,4]triazin-7-yl)-2,5-dihydro-1H-pyrrole-1-carboxylate]: the half-inhibitory concentration (IC50) is 7 nM. Consider `COC(=O)N1CC=C(c2cc(N3CCC[C@@H](NC(=O)c4sc5ccccc5c4OC4CCN(CCO)CC4)C3)c3c(N)ncnn23)C1` [Example 660, methyl (R)-3-(4-amino-5-(3-(3-((1-(2-hydroxyethyl)piperidin-4-yl)oxy)benzo[b]thiophene-2-carboxamido)piperidin-1-yl)pyrrolo[2,1-f][1,2,4]triazin-7-yl)-2,5-dihydro-1H-pyrrole-1-carboxylate], for which the IC50 was determined as 2 nM. For `COC(=O)N1CC=C(c2cc(N3CCC[C@@H](NC(=O)c4sc5ccccc5c4OCCN(C)C)C3)c3c(N)ncnn23)C1` [Example 661, Methyl (R)-3-(4-amino-5-(3-(3-(2-(dimethylamino)ethoxy)benzo[b]thiophene-2-carboxamido)piperidin-1-yl)pyrrolo[2,1-f][1,2,4]triazin-7-yl)-2,5-dihydro-1H-pyrrole-1-carboxylate] the value was 13 nM; for `CC(=O)N1CC=C(c2cc(N3CCC[C@@H](NC(=O)c4sc5ccccc5c4OCCN(C)C)C3)c3c(N)ncnn23)C1` [Example 662, (R)-N-(1-(7-(1-acetyl-2,5-dihydro-1H-pyrrol-3-yl)-4-aminopyrrolo[2,1-f][1,2,4]triazin-5-yl)piperidin-3-yl)-3-(2-(dimethylamino)ethoxy)benzo[b]thiophene-2-carboxamide], 16 nM; for `CN(C)CCOc1c(C(=O)N[C@@H]2CCCN(c3cc(-c4ccc(C(N)=O)nc4)n4ncnc(N)c34)C2)sc2ccccc12` [Example 664, (R)-5-(4-amino-5-(3-(3-(2-(dimethylamino)ethoxy)benzo[b]thiophene-2-carboxamido)piperidin-1-yl)pyrrolo[2,1-f][1,2,4]triazin-7-yl)picolinamide], 13 nM. Next, `CN(C)CCOc1c(C(=O)N[C@@H]2CCCN(c3cc(-c4ccc(C#N)nc4)n4ncnc(N)c34)C2)sc2ccncc12` [Example 666, (R)—N-(1-(4-amino-7-(6-cyanopyridin-3-yl)pyrrolo[2,1-f][1,2,4]triazin-5-yl)piperidin-3-yl)-3-(2-(dimethylamino)ethoxy)thieno[3,2-c]pyridine-2-carboxamide]: 11 nM; `COC(=O)N1CC=C(c2cc(N3CCC[C@@H](NC(=O)c4sc5ccncc5c4OCCN(C)C)C3)c3c(N)ncnn23)C1` [Example 668, methyl (R)-3-(4-amino-5-(3-(3-(2-(dimethylamino)ethoxy)thieno [3,2-c]pyridine-2-carboxamido)piperidin-1-yl)pyrrolo[2,1-f] [1,2,4]triazin-7-yl)-2,5-dihydro-1H-pyrrole-1-carboxylate]: 21 nM; `CC(=O)N1CC=C(c2cc(N3CCC[C@@H](NC(=O)c4sc5ccncc5c4OCCN(C)C)C3)c3c(N)ncnn23)C1` [Example 669, (R)-N-(1-(7-(1-acetyl-2,5-dihydro-1H-pyrrol-3-yl)-4-aminopyrrolo[2,1-f][1,2,4]triazin-5-yl)piperidin-3-yl)-3-(2-(dimethylamino)ethoxy)thieno [3,2-c]pyridine-2-carboxamide]: 22 nM.

Turning to `CN(C)CCOc1c(C(=O)N[C@@H]2CCCN(c3cc(-c4ccc(C(N)=O)nc4)n4ncnc(N)c34)C2)sc2ccncc12` [Example 670, (R)-N-(1-(4-amino-7-(6-carbamoylpyridin-3-yl)pyrrolo[2,1-f] [1,2,4]triazin-5-yl)piperidin-3-yl)-3-(2-(dimethylamino)ethoxy)thieno [3,2-c]pyridine-2-carboxamide], the IC50 was 40 nM. For `COC(=O)N1CCC(c2cc(N3CCC[C@@H](NC(=O)c4sc5ccccc5c4OC4CN(C(=O)OC(C)(C)C)C4)C3)c3c(N)ncnn23)C1` (stereo partly drawn) [Example 671, methyl 3-(4-amino-5-((R)-3-(3-((1-(tert-butoxycarbonyl)azetidin-3-yl)oxy)benzo[b]thiophene-2-carboxamido)piperidin-1-yl)pyrrolo[2,1-f][1,2,4]triazin-7-yl)pyrrolidine-1-carboxylate] the value was 67 nM. For `CC(=O)N1CC=C(c2cc(N3CCC[C@@H](NC(=O)c4sc5ccccc5c4OC4CN(C(=O)OC(C)(C)C)C4)C3)c3c(N)ncnn23)C1` [Example 673, tert-butyl (R)-3-((2-((1-(7-(1-acetyl-2,5-dihydro-1H-pyrrol-3-yl)-4-aminopyrrolo [2,1-f][1,2,4]triazin-5-yl)piperidin-3-yl)carbamoyl)benzo[b]thiophen-3-yl)oxy)azetidine-1-carboxylate], the IC50 stood at 96 nM. In the case of `COC(=O)N1CC=C(c2cc(N3CCC[C@@H](NC(=O)c4sc5ccccc5c4OC4CNC4)C3)c3c(N)ncnn23)C1` [Example 674, methyl (R)-3-(4-amino-5-(3-(3-(azetidin-3-yloxy)benzo[b]thiophene-2-carboxamido)piperidin-1-yl)pyrrolo[2,1-f][1,2,4]triazin-7-yl)-2,5-dihydro-1H-pyrrole-1-carboxylate], the IC50 amounted to 85 nM. For `NC(=O)c1ccc(-c2cc(N3CCC[C@@H](NC(=O)c4sc5ccccc5c4OC4CNC4)C3)c3c(N)ncnn23)cn1` [Example 675, (R)-5-(4-amino-5-(3-(3-(azetidin-3-yloxy)benzo[b]thiophene-2-carboxamido)piperidin-1-yl)pyrrolo[2,1-f][1,2,4]triazin-7-yl)picolinamide] the value was 25 nM; for `CC(=O)N1CC=C(c2cc(N3CCC[C@@H](NC(=O)c4sc5ccc(C#N)cc5c4OC4CCN(C(=O)OC(C)(C)C)CC4)C3)c3c(N)ncnn23)C1` [Example 676, tert-butyl (R)-4-((2-((1-(7-(1-acetyl-2,5-dihydro-1H-pyrrol-3-yl)-4-aminopyrrolo[2,1-f][1,2,4]triazin-5-yl)piperidin-3-yl)carbamoyl)-5-cyanobenzo[b]thiophen-3-yl)oxy)piperidine-1-carboxylate], 117 nM.

For the compound `CC(=O)N1CC=C(c2cc(N3CCC[C@@H](NC(=O)c4sc5ccc(C#N)cc5c4OC4CCNCC4)C3)c3c(N)ncnn23)C1` [Example 677, (R)—N-(1-(7-(1-acetyl-2,5-dihydro-1H-pyrrol-3-yl)-4-aminopyrrolo[2,1-f][1,2,4]triazin-5-yl)piperidin-3-yl)-5-cyano-3-(piperidin-4-yloxy)benzo[b]thiophene-2-carboxamide], the IC50 was 35 nM. Consider `COC(=O)N1CC=C(c2cc(N3CCC[C@@H](NC(=O)c4sc5ccc(C#N)cc5c4OC4CCN(C(=O)OC(C)(C)C)CC4)C3)c3c(N)ncnn23)C1` [Example 678, tert-butyl (R)-4-((2-((1-(4-amino-7-(1-(methoxycarbonyl)-2,5-dihydro-1H-pyrrol-3-yl)pyrrolo[2,1-f][1,2,4]triazin-5-yl)piperidin-3-yl)carbamoyl)-5-cyanobenzo[b]thiophen-3-yl)oxy)piperidine-1-carboxylate], for which the IC50 is 477 nM. As to `CC(=O)N1CC=C(c2cc(N3CCC[C@@H](NC(=O)c4cn5ccc(C#N)cc5n4)C3)c3c(N)ncnn23)C1` [Example 679, (R)—N-(1-(7-(1-acetyl-2,5-dihydro-1H-pyrrol-3-yl)-4-aminopyrrolo[2,1-f][1,2,4]triazin-5-yl)piperidin-3-yl)-7-cyanoimidazo[1,2-a]pyridine-2-carboxamide], the IC50 amounted to 484 nM. Next, `CCn1cc(-c2cc(N3CCC[C@@H](NC(=O)c4sc(Cl)cc4OCCN(C)C)C3)c3c(N)ncnn23)ccc1=O` [Example 682, (R)—N-(1-(4-amino-7-(1-ethyl-6-oxo-1,6-dihydropyridin-3-yl)pyrrolo[2,1-f][1,2,4]triazin-5-yl)piperidin-3-yl)-5-chloro-3-(2-(dimethylamino)ethoxy)thiophene-2-carboxamide]: 1420 nM.

Source of the values: patent US20260250290A1 (BRISTOL-MYERS SQUIBB COMPANY, priority 2023, published 2026).
